Legend:
HCV NS5B = target: T1, HCV NS5B (Hepatitis C virus genotype 1b, UniProt Q9WMX2); assay: HCV NS5B RdRp enzyme assay (standard / modified); type: biochemical; details: HCV RdRp genotype 1b; standard or modified assay not specified; read-out: IC50
T1 construct: The protein was expressed with an 18 amino acid C-terminal truncation to enhance the solubility; made in house; host or cells: E. coli BL21(DE3)
Procedure: HCV NS5B RdRp cloning, expression, and purification. The cDNA encoding the NS5B protein of HCV, genotype 1b, was cloned into the pET21a expression vector. The protein was expressed with an 18 amino acid C-terminal truncation to enhance the solubility. The E. coli competent cell line BL21(DE3) was used for expression of the protein. Cultures were grown at 37° C. for ˜4 hours until the cultures reached an optical density of 2.0 at 600 nm. The cultures were cooled to 20° C. and induced with 1 mM IPTG. Fresh ampicillin was added to a final concentration of 50 μg/ml and the cells were grown overnight at 20° C.
Cell pellets (3 L) were lysed for purification to yield 15-24 mgs of purified NS5B. The lysis buffer consisted of 20 mM Tris-HCl, pH 7.4, 500 mM NaCl, 0.5% triton X-100, 1 mM DTT, 1 mM EDTA, 20% glycerol, 0.5 mg/ml lysozyme, 10 mM MgCl2, 15 ug/ml deoxyribonuclease I, and Complete TM protease inhibitor tablets (Roche). After addition of the lysis buffer, frozen cell pellets were resuspended using a tissue homogenizer. To reduce the viscosity of the sample, aliquots of the lysate were sonicated on ice using a microtip attached to a Branson sonicator. The sonicated lysate was centrifuged at 100,000×g for 1 hr at 4° C. and filtered through a 0.2 μm filter unit (Corning).
The protein was purified using two sequential chromatography steps: Heparin sepharose CL-6B and polyU sepharose 4B (Pharmacia). The chromatography buffers were identical to the lysis buffer but contained no lysozyme, deoxyribonuclease I, MgCl2 or protease inhibitor and the NaCl concentration of the buffer was adjusted according to the requirements for charging the protein onto the column. Each column was eluted with a NaCl gradient which varied in length from 5-50 column volumes depending on the column type. After the final chromatography step, the resulting purity of the enzyme is >90% based on SDS-PAGE analysis. The enzyme was aliquoted and stored at −80° C.
Standard HCV NS5B RdRp enzyme assay. HCV RdRp genotype 1b assays were run in a final volume of 60 μl in 96 well plates (Corning 3600). The assay buffer is composed of 20 mM Hepes, pH 7.5, 2.5 mM KCl, 2.5 mM MgCl2, 1 mM DTT, 1.6 U RNAse inhibitor (Promega N2515), 0.01 mg/ml BSA (Sigma B6917), and 2% glycerol. All compounds were serially diluted (3-fold) in DMSO and diluted further in water such that the final concentration of DMSO in the assay was 2%. HCV RdRp genotype 1b enzyme was used at a final concentration of 28 nM. A polyA template was used at 6 nM, and a biotinylated oligo-dT12 primer was used at 180 nM final concentration. Template was obtained commercially (Amersham 27-4110). Biotinylated primer was prepared by Sigma Genosys. 3H-UTP was used at 0.6 μCi (0.29 μM total UTP). Reactions were initiated by the addition of enzyme, incubated at 30 ° C. for 60 min, and stopped by adding 25 μl of 50 mM EDTA containing SPA beads (4 μg/μl, Amersham RPNQ 0007). Plates were read on a Packard Top Count NXT after >1 hr incubation at room temperature.
Modified HCV NS5B RdRp enzyme assay. A modified enzyme assay was performed essentially as described for the standard enzyme assay except for the following: The biotinylated oligo dT12 primer was precaptured on streptavidin-coated SPA beads by mixing primer and beads in assay buffer and incubating at room temperature for one hour. Unbound primer was removed after centrifugation. The primer-bound beads were resuspended in 20 mM Hepes buffer, pH 7.5 and used in the assay at final concentrations of 20 nM primer and 0.67 μg/μl beads. Order of addition in the assay: enzyme (1.75 nM) was added to diluted compound followed by the addition of a mixture of template (0.36 nM), 3H-UTP (0.6 μCi, 0.29 μM), and primer-bound beads, to initiate the reaction; concentrations given are final. Reactions were allowed to proceed for 4 hours at 30° C.
IC50 values for compounds were determined using seven different [I]. […]

HCV replicon cells = assay: HCV replicon FRET / luciferase assay; type: cell-based; details: Hepatitis C virus, 50% reduction in FRET or luciferase activity in HCV replicon cells; read-out: EC50
Procedure: FRET Assay Preparation. The HCV FRET screening assay was performed in 96-well cell culture plates. The FRET peptide (Anaspec, Inc.) (Taliani et al., Anal. Biochem. 1996, 240, 60-67) contains a fluorescence donor, EDANS, near one end of the peptide and an acceptor, DABCYL, near the other end. The fluorescence of the peptide is quenched by […] resonance energy transfer (RET) between the donor and the acceptor, but as the NS3 protease cleaves the peptide the products are released from RET quenching and the fluorescence of the donor becomes apparent. The assay reagent was made as follows: 5× cell Luciferase cell culture lysis reagent from Promega (#E153A) diluted to 1× with dH2O, NaCl added to 150 mM final, the FRET peptide diluted to 20 μM final from a 2 mM stock.
To prepare plates, HCV replicon cells, with or without a Renilla luciferase reporter gene, were trypsinized and plated in a 96-well plate with titrated test compounds added in columns 3 through 12; columns 1 and 2 contained a control compound (HCV control inhibitor), and the bottom row contained cells with DMSO only. The plates were then placed in a CO2 incubator at 37° C.
Assays. Subsequent to addition of the test compounds described above (FRET Assay Preparation), at various times the plate was removed and Alamar blue solution (Trek Diagnostics, #00-100) was added to measure cellular toxicity. After reading in a Cytoflour 4000 instrument (PE Biosystems), plates were rinsed with PBS and then used for FRET assay by the addition of 30 ul of the FRET peptide assay reagent described above (FRET Assay Preparation) per well. The plate was then placed into the Cytoflour 4000 instrument which had been set to 340 excite/490 emission, automatic mode for up to 20 cycles and the plate read in a kinetic mode. Typically, the signal to noise using an endpoint analysis after the reads was at least three-fold. Alternatively, after Alamar blue reading, plates were rinsed with PBS, then used for luciferase assay using the Promega Dual-Glo Luciferase Assay System or the Promega EnduRen Live Cell Substrate assay.
Compound analysis was performed by quantification of the relative HCV replicon inhibition and the relative cytotoxicity values. To calculate cytoxicity values, the average Alamar Blue fluorescence signals from the control wells were set as 100% non-toxic. The individual signals in each of the compound test wells were then divided by the average control signal and multiplied by 100% to determine […]. To calculate the HCV replicon inhibition values, an average background value was obtained from the two wells containing the highest amount of HCV control inhibitor at the end of the assay period. These numbers were similar to those obtained from naïve Huh-7 cells. The background numbers were then subtracted from the average signal obtained from the control wells and this number was used as 100% activity. The individual signals in each of the compound test wells were then divided by the averaged control values after background subtraction and multiplied by 100% to determine percent activity. EC50 values were calculated as the concentration which caused a 50% reduction in FRET or luciferase activity. The two numbers generated for the compound plate, percent cytoxicity and percent activity, were used to determine compounds of interest for further analysis.

T1 sequence (Q9WMX2 2420-2992): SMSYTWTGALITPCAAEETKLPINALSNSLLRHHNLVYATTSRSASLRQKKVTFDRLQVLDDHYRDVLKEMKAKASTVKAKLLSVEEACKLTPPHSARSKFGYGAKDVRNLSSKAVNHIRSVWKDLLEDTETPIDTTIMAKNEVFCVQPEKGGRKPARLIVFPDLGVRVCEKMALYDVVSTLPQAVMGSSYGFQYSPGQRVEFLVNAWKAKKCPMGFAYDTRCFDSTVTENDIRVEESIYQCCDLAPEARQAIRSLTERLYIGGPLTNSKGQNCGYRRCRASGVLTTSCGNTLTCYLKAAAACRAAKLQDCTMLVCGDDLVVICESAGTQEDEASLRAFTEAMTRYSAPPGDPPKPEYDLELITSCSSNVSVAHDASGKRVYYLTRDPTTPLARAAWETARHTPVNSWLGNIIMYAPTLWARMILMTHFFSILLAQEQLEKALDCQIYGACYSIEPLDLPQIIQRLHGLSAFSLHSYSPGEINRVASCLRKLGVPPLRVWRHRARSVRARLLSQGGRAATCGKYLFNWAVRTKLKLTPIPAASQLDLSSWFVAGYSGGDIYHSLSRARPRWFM

SMILES	IC50 (HCV NS5B)	EC50 (HCV replicon cells)
COc1ccc2c(c1)C1CC1(C(=O)N1C[C@H]3C[C@@H]1CN3C(=O)OC(C)(C)C)Cn1c-2c(C2CCCCC2)c2ccc(C(=O)NS(C)(=O)=O)cc21 (stereo partly drawn)	2.4 to 500 nM	2.4 to 500 nM
CCC(C)S(=O)(=O)NC(=O)c1ccc2c(C3CCCCC3)c3n(c2c1)CC1(C(=O)N2CC4CCC2CN4)CC1c1cc(OC)ccc1-3 (stereo not drawn)	2.4 to 500 nM	500 to 5000 nM
COc1ccc2c(c1)C1CC1(C(=O)N1C[C@H]3C[C@@H]1CN3CC(C)C)Cn1c-2c(C2CCCCC2)c2ccc(C(=O)NS(=O)(=O)N(C)C)cc21 (stereo partly drawn)	2.4 to 500 nM	2.4 to 500 nM
COc1ccc2c(c1)C1CC1(C(=O)N1[C@@H]3C[C@H]1CN(C)C3)Cn1c-2c(C2CCCCC2)c2ccc(C(=O)NS(C)(=O)=O)cc21 (stereo partly drawn)	2.4 to 500 nM	2.4 to 500 nM
COc1ccc2c(c1)C1CC1(C(=O)N1CC3CCC1CN3)Cn1c-2c(C2CCCCC2)c2ccc(C(=O)NS(=O)(=O)CC(C)C)cc21 (stereo not drawn)	2.4 to 500 nM	> 1000 nM
COc1ccc2c(c1)C1CC1(C(=O)N1C3COC[C@@H]1CN(C)C3)Cn1c-2c(C2CCCCC2)c2ccc(C(=O)NS(=O)(=O)CCC(F)(F)F)cc21 (stereo partly drawn)	2.4 to 500 nM	2.4 to 500 nM
COc1ccc2c(c1)C1CC1(C(=O)N1C3CC1CN(C)C3)Cn1c-2c(C2CCCCC2)c2ccc(C(=O)NS(=O)(=O)C(C)(C)C)cc21 (stereo not drawn)	2.4 to 500 nM	2.4 to 500 nM
COc1ccc2c(c1)C1CC1(C(=O)N1CC3CN(C)CC(C1)N3)Cn1c-2c(C2CCCCC2)c2ccc(C(=O)NS(=O)(=O)N(C)C)cc21 (stereo not drawn)	2.4 to 500 nM	2.4 to 500 nM
COc1ccc2c(c1)C1CC1(C(=O)N1C3CC1CN(Cc1ccccc1)C3)Cn1c-2c(C2CCCCC2)c2ccc(C(=O)NS(=O)(=O)CCC(F)(F)F)cc21 (stereo not drawn)	2.4 to 500 nM	500 to 5000 nM
COc1ccc2c(c1)C1CC1(C(=O)N1[C@@H]3C[C@H]1CN(C)C3)Cn1c-2c(C2CCCCC2)c2ccc(C(=O)NS(=O)(=O)N(C)C)cc21 (stereo partly drawn)	2.4 to 500 nM	2.4 to 500 nM
COc1ccc2c(c1)C1CC1(C(=O)N1C3COCC1CN(C)C3)Cn1c-2c(C2CCCCC2)c2ccc(C(=O)NS(=O)(=O)N(C)C)cc21 (stereo not drawn)	2.4 to 500 nM	2.4 to 500 nM
COc1ccc2c(c1)C1CC1(C(=O)N1C3CC1CN(Cc1ccccc1)C3)Cn1c-2c(C2CCCCC2)c2ccc(C(=O)NS(=O)(=O)C3CCCCC3)cc21 (stereo not drawn)	2.4 to 500 nM	500 to 5000 nM
COc1ccc2c(c1)C1CC1(C(=O)N1[C@@H]3C[C@H]1CN(C(=O)N(C)C)C3)Cn1c-2c(C2CCCCC2)c2ccc(C(=O)NS(=O)(=O)N(C)C)cc21 (stereo partly drawn)	2.4 to 500 nM	2.4 to 500 nM
COc1ccc2c(c1)C1CC1(C(=O)N1C[C@H]3C[C@@H]1CN3C)Cn1c-2c(C2CCCCC2)c2ccc(C(=O)NS(N)(=O)=O)cc21 (stereo partly drawn)	2.4 to 500 nM	2.4 to 500 nM
COc1ccc2c(c1)C1CC1(C(=O)N1CCN3CCC1C3)Cn1c-2c(C2CCCCC2)c2ccc(C(=O)NS(=O)(=O)N(C)C)cc21 (stereo not drawn)	2.4 to 500 nM	2.4 to 500 nM
COc1ccc2c(c1)C1CC1(C(=O)N1C3CC1CN(C)C3)Cn1c-2c(C2CCCCC2)c2ccc(C(=O)NS(=O)(=O)CC3CCCO3)cc21 (stereo not drawn)	2.4 to 500 nM	2.4 to 500 nM
COc1ccc2c(c1)C1CC1(C(=O)N1C3CC1CN(Cc1ccccc1)C3)Cn1c-2c(C2CCCCC2)c2ccc(C(=O)NS(=O)(=O)CC(F)(F)F)cc21 (stereo not drawn)	2.4 to 500 nM	500 to 5000 nM
COc1ccc2c(c1)C1CC1(C(=O)N1CC3CN(C)CC(C1)N3C)Cn1c-2c(C2CCCCC2)c2ccc(C(=O)NS(=O)(=O)N(C)C)cc21 (stereo not drawn)	2.4 to 500 nM	2.4 to 500 nM
COc1ccc2c(c1)C1CC1(C(=O)N1C3CC1CN(C)C3)Cn1c-2c(C2CCCCC2)c2ccc(C(=O)NS(=O)(=O)CC3CC3)cc21 (stereo not drawn)	2.4 to 500 nM	2.4 to 500 nM
COc1ccc2c(c1)C1CC1(C(=O)N1C[C@@H]3C[C@H]1CN3C)Cn1c-2c(C2CCCCC2)c2ccc(C(=O)NS(=O)(=O)N3CCC3)cc21 (stereo partly drawn)	2.4 to 500 nM	2.4 to 500 nM
COc1ccc2c(c1)C1CC1(C(=O)N1C3CNCC1C3)Cn1c-2c(C2CCCCC2)c2ccc(C(=O)NS(=O)(=O)C3CC3)cc21 (stereo not drawn)	2.4 to 500 nM	2.4 to 500 nM
COc1ccc2c(c1)C1CC1(C(=O)N1CCN3CCC1CC3)Cn1c-2c(C2CCCCC2)c2ccc(C(=O)NS(=O)(=O)N3CCN(C)CC3)cc21 (stereo not drawn)	2.4 to 500 nM	2.4 to 500 nM
COc1ccc2c(c1)C1CC1(C(=O)N1[C@@H]3C[C@H]1CN(C(C)=O)C3)Cn1c-2c(C2CCCCC2)c2ccc(C(=O)NS(=O)(=O)N(C)C)cc21 (stereo partly drawn)	2.4 to 500 nM	2.4 to 500 nM
COc1ccc2c(c1)C1CC1(C(=O)N1C3COC[C@@H]1CN(C)C3)Cn1c-2c(C2CCCCC2)c2ccc(C(=O)NS(=O)(=O)CC(F)(F)F)cc21 (stereo partly drawn)	2.4 to 500 nM	2.4 to 500 nM

Reference: US7547690B2, “Compounds for the treatment of Hepatitis C” (Bristol-Myers Squibb Company, priority 2007, dated 2009)
